Biological target: T1, human β3 adrenergic receptor (Homo sapiens, UniProt P13945)
T1 construct: expressed in transfected cells; host or cells: DXB-11 Chinese hamster ovary (CHO) cell line, stably transfected (phd expression vector)
Assay: whole cell receptor coupled c-AMP assay, human β3 receptor in CHO cells (EC50, Emax relative to isoproterenol)
Format: cell-based
Settings: Emax ± standard error of the mean; average of at least 3 runs except where n = 1; compound tested in the isolated form listed
Source text: The genes encoding the human β1-adrenergic receptor (Frielle et al., Proc. Natl. Acad. Sci., 84:7920-7924, 1987), the human β2-adrenergic receptor (Kobika et al., Proc. Natl. Acad. Sci., 84:46-50, 1987, Emorine et al., Proc. Natl. Acad. Sci., 84:6995-6999, 1987) and the human β3 adrenergic receptor (Granneman et al., Molecular Pharmacology, 44(2):264-70, 1993) are individually subcloned into a phd expression vector (Grinnell et al., Bio/Technology, 5:1189-1192, 1987) and transfected into the DXB-11 Chinese hamster ovary (CHO) cell line by calcium phosphate precipitation methodology. The stably transfected cells are grown to 95% confluency in 95% Dulbecco's modified Eagles Medium (DMEM), 5% fetal bovine serum and 0.01% proline. Media is removed and the cells are washed with phosphate buffered (pH 7.4) saline (without magnesium and calcium). Cells are then lifted using an enzyme free cell dissociation solution (Specialty Media, Lavallette, N.J.) and pelleted by centrifugation.
Cells from each of the above cell lines are resuspended and added (20,000/well) to a 96-well plate. Cells are incubated at 37° C. with representative compounds of the invention for 20 minutes in buffer (Hank's balanced salt solution, 10 mM HEPES, 0.1% BSA, 1 mM L-ascorbic acid, 0.2% dimethyl sulfoxide, 1 mm 3-isobutyl-1-methylxanthine, pH 7.4). After halting the incubation with quench buffer (50 mM Na Acetate, 0.25% Triton X-100, pH 5.8), the c-AMP level is quantified by scintillation proximity assay (SPA) using a modification of the commercially available c-AMP kit (Amersham, Arlington Heights, Ill.) with rabbit anti-cAMP antibody (ICN Biomedicals, Aurora, Ohio) for the kit.
Sigmoidal dose response curves, from the whole cell receptor coupled c-AMP assay are fit to a four parameter logistic equation using non linear regression: y=(a−d)/(1+(Dose/c)^b)+d where a and d are responses at zero and maximal dose, b is the slope factor and c is the EC50 as previously described (DeLean et al., Am. J. Physiol., 235, E97-E102, 1978). EC50 is assessed as the concentration producing 50% of the maximum response to each agonist.
Isoproterenol is accepted in the art as a non-selective β3 agonist and is widely used as a comparator in evaluating the activity of compounds. See Trends in Pharm. Sci., 15:3, 1994. The % intrinsic activity (Emax) of representative compounds of the invention is assessed relative to isoproterenol by the compound's maximal response divided by the isoproterenol maximal response times 100.

T1 sequence (P13945 whole entry): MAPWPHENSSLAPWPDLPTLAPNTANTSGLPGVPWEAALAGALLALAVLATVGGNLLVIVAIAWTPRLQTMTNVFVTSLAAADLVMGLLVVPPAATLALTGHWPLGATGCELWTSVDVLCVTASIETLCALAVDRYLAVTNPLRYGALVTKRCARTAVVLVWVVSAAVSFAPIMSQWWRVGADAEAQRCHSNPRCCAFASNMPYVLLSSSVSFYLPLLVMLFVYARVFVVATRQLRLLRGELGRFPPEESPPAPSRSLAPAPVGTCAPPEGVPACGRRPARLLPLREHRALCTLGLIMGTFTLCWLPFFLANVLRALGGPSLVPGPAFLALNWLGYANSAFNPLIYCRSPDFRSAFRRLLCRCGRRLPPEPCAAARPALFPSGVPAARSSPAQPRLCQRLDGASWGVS

SMILES	Emax (%) ± SEM
COC(=O)c1ccc(Oc2ccc(CC(C)(C)NC[C@H](O)COc3ccccc3-c3ccn(C)n3)cc2)nc1 [Example 114]	56.6 n = 1%
COC(=O)c1ccc(Oc2ccc(CC(C)(C)NC[C@H](O)COc3ccccc3-c3cccs3)cc2)nc1 [Example 115]	61.9 ± 7.0%
COC(=O)c1ccc(Oc2ccc(CC(C)(C)NC[C@H](O)COc3ccccc3-c3nccs3)cc2)nc1 [Example 116]	58.2 ± 7.2%
COC(=O)c1ccc(Oc2ccc(CC(C)(C)NC[C@H](O)COc3ccccc3-c3ccno3)cc2)nc1 [Example 117]	32.2 ± 6.5%
COC(=O)c1ccc(Oc2ccc(CC(C)(C)NC[C@H](O)COc3ccccc3-c3ccn[nH]3)cc2)nc1 [Example 118]	29.5 n = 1%
CC(C)(Cc1ccc(Oc2ccc(C#N)cc2)cc1)NC[C@H](O)COc1ccccc1-c1cccs1.O=C(O)C(F)(F)F [Example 119]	55.2 ± 3.6%
CC(C)(Cc1ccc(Oc2ccc(C#N)cc2)cc1)NC[C@H](O)COc1ccccc1-c1nccs1.O=C(O)C(F)(F)F [Example 120]	35.8 ± 4.6%
CC(C)(Cc1ccc(Oc2ccc(C#N)cc2)cc1)NC[C@H](O)COc1ccccc1-c1ccno1.O=C(O)C(F)(F)F [Example 121]	38.9 ± 7.1%
CC(C)(Cc1ccc(Oc2ccc(C(N)=O)cc2)cc1)NC[C@H](O)COc1ccccc1-c1cccs1.O=C(O)C(F)(F)F [Example 123]	73.6 ± 8.2%
CC(C)(Cc1ccc(Oc2ccc(C(N)=O)cc2)cc1)NC[C@H](O)COc1ccccc1-c1nccs1.O=C(O)C(F)(F)F [Example 124]	46.7 ± 3.6%
CC(C)(Cc1ccc(Oc2ccc(C(N)=O)cc2)cc1)NC[C@H](O)COc1ccccc1-c1ccno1.O=C(O)C(F)(F)F [Example 125]	40.3 ± 7.9%
CC(C)(Cc1ccc(Oc2ccc(C(N)=O)cc2)cc1)NC[C@H](O)COc1ccccc1-c1ccns1.O=C(O)C(F)(F)F [Example 126]	62.2 ± 1.3%
Cn1nccc1-c1ccccc1OC[C@@H](O)CNC(C)(C)Cc1ccc(Oc2ccc(S(C)(=O)=O)cc2)cc1 [Example 127]	<10%
Cn1ccc(-c2ccccc2OC[C@@H](O)CNC(C)(C)Cc2ccc(Oc3ccc(S(C)(=O)=O)cc3)cc2)n1 [Example 128]	40.6 n = 1%
CC(C)(Cc1ccc(Oc2ccc(S(C)(=O)=O)cc2)cc1)NC[C@H](O)COc1ccccc1-c1cccs1.O=C(O)C(F)(F)F [Example 129]	53.2 ± 4.8%
CC(C)(Cc1ccc(Oc2ccc(S(C)(=O)=O)cc2)cc1)NC[C@H](O)COc1ccccc1-c1nccs1 [Example 130]	49.5 ± 3.4%
CC(C)(Cc1ccc(Oc2ccc(S(C)(=O)=O)cc2)cc1)NC[C@H](O)COc1ccccc1-c1nccs1.O=C(O)C(F)(F)F [Example 131]	43.5 ± 1.4%

SMILES	Emax (%) ± SEM
CC(C)(Cc1ccc(Oc2ccc(S(C)(=O)=O)cc2)cc1)NC[C@H](O)COc1ccccc1-c1ccno1 [Example 132]	34.6 ± 7.8%
CC(C)(Cc1ccc(Oc2ccc(S(C)(=O)=O)cc2)cc1)NC[C@H](O)COc1ccccc1-c1ccn[nH]1 [Example 133]	21.4 n = 1%
CC(C)(Cc1ccc(Oc2ccc(S(C)(=O)=O)cc2)cc1)NC[C@H](O)COc1ccccc1-c1ccon1.Cl [Example 134]	47.7 ± 6.5%
CC(C)(Cc1ccc(Oc2ccc(S(C)(=O)=O)cc2)cc1)NC[C@H](O)COc1ccccc1-c1ccno1.O=C(O)C(F)(F)F [Example 135]	35.2 ± 4.3%
CC(C)(Cc1ccc(Oc2ccc(S(C)(=O)=O)cc2)cc1)NC[C@H](O)COc1cc(F)ccc1C1=CC(=O)OC1.Cl [Example 136]	<10%
COC(=O)c1ccc(Oc2ccc(CC(C)(C)NC[C@H](O)COc3ccccc3-c3ccnn3C)cc2)c(Cl)c1 [Example 137]	<10%
COC(=O)c1ccc(Oc2ccc(CC(C)(C)NC[C@H](O)COc3ccccc3-c3ccn(C)n3)cc2)c(Cl)c1 [Example 138]	41.7 n = 1%
COC(=O)c1ccc(Oc2ccc(CC(C)(C)NC[C@H](O)COc3ccccc3-c3cccs3)cc2)c(Cl)c1 [Example 139]	62.2 ± 7.4%
COC(=O)c1ccc(Oc2ccc(CC(C)(C)NC[C@H](O)COc3ccccc3-c3nccs3)cc2)c(Cl)c1 [Example 140]	48.9 ± 2.5%
COC(=O)c1ccc(Oc2ccc(CC(C)(C)NC[C@H](O)COc3ccccc3-c3ccno3)cc2)c(Cl)c1 [Example 141]	48.3 ± 9.9%
COC(=O)c1ccc(Oc2ccc(CC(C)(C)NC[C@H](O)COc3ccccc3-c3ccn[nH]3)cc2)c(Cl)c1 [Example 142]	20.2 n = 1%
CC(C)(Cc1ccc(Oc2cccnc2C#N)cc1)NC[C@H](O)COc1ccccc1-c1cccs1.O=C(O)C(F)(F)F [Example 143]	67.2 ± 4.8%
CC(C)(Cc1ccc(Oc2cccnc2C#N)cc1)NC[C@H](O)COc1ccccc1-c1nccs1.O=C(O)C(F)(F)F [Example 144]	55.9 ± 1.1%
CC(C)(Cc1ccc(Oc2ccc(C#N)nc2)cc1)NC[C@H](O)COc1ccccc1-c1nccs1.O=C(O)C(F)(F)F [Example 145]	44.6 ± 6.2%
CC(C)(Cc1ccc(Oc2cccnc2C#N)cc1)NC[C@H](O)COc1ccccc1-c1ccno1.O=C(O)C(F)(F)F [Example 146]	58.7 ± 2.9%
CC(C)(Cc1ccc(Oc2cccnc2C#N)cc1)NC[C@H](O)COc1ccccc1-c1ccns1.O=C(O)C(F)(F)F [Example 147]	58.9 ± 3.6%
CC(C)(Cc1ccc(Oc2ncccn2)cc1)NC[C@H](O)COc1ccccc1-c1cccs1.O=C(O)C(F)(F)F [Example 150]	69.8 ± 6.0%

Next, values leading:

Emax (%) ± SEM	SMILES
73.1 ± 3.8%	CC(C)(Cc1ccc(Oc2ncccn2)cc1)NC[C@H](O)COc1ccccc1-c1nccs1.O=C(O)C(F)(F)F [Example 151]
45.3 ± 4.2%	CC(C)(Cc1ccc(Oc2ncccn2)cc1)NC[C@H](O)COc1ccccc1-c1ccno1.O=C(O)C(F)(F)F [Example 152]
66.8 ± 5.5%	CC(C)(Cc1ccc(Oc2cnccn2)cc1)NC[C@H](O)COc1ccccc1-c1cccs1.O=C(O)C(F)(F)F [Example 153]
61.1 ± 7.7%	CC(C)(Cc1ccc(Oc2cnccn2)cc1)NC[C@H](O)COc1ccccc1-c1nccs1.O=C(O)C(F)(F)F [Example 154]
46.6 ± 4.2%	CC(C)(Cc1ccc(Oc2cnccn2)cc1)NC[C@H](O)COc1ccccc1-c1ccno1.O=C(O)C(F)(F)F [Example 155]
84.9 ± 0.2%	CC(C)(Cc1ccc(Oc2nc(Cl)c(Cl)cc2Cl)cc1)NC[C@H](O)COc1ccccc1-c1cccs1.O=C(O)C(F)(F)F [Example 156]
73.3 ± 6.6%	CC(C)(Cc1ccc(Oc2nc(Cl)c(Cl)cc2Cl)cc1)NC[C@H](O)COc1ccccc1-c1nccs1.O=C(O)C(F)(F)F [Example 157]
73.0 ± 3.0%	CC(C)(Cc1ccc(Oc2nc(Cl)c(Cl)cc2Cl)cc1)NC[C@H](O)COc1ccccc1-c1ccno1.O=C(O)C(F)(F)F [Example 158]
76.9 ± 7.4%	CC(C)(Cc1ccc(Oc2ncc(C(F)(F)F)cc2Cl)cc1)NC[C@H](O)COc1ccccc1-c1cccs1.O=C(O)C(F)(F)F [Example 159]
56.3 ± 1.4%	CC(C)(Cc1ccc(Oc2ncc(C(F)(F)F)cc2Cl)cc1)NC[C@H](O)COc1ccccc1-c1ccno1.O=C(O)C(F)(F)F [Example 160]
52.5 ± 4.7%	CC(C)(Cc1ccc(Oc2ccc(C#N)cc2Cl)cc1)NC[C@H](O)COc1ccccc1-c1cccs1.O=C(O)C(F)(F)F [Example 161]
44.6 ± 4.3%	CC(C)(Cc1ccc(Oc2ccc(C#N)cc2Cl)cc1)NC[C@H](O)COc1ccccc1-c1ccno1.O=C(O)C(F)(F)F [Example 163]
67.3 ± 3.5%	CC(C)(Cc1ccc(Oc2ccc(C(N)=O)cc2Cl)cc1)NC[C@H](O)COc1ccccc1-c1cccs1.O=C(O)C(F)(F)F [Example 164]
49.7 ± 3.9%	CC(C)(Cc1ccc(Oc2ccc(C(N)=O)cc2Cl)cc1)NC[C@H](O)COc1ccccc1-c1nccs1.O=C(O)C(F)(F)F [Example 165]
58.3 ± 9.5%	CC(C)(Cc1ccc(Oc2ccc(C(N)=O)cc2Cl)cc1)NC[C@H](O)COc1ccccc1-c1ccno1.O=C(O)C(F)(F)F [Example 166]

From patent publication US6730792B2, “β3 adrenergic agonists” (Eli Lilly and Company, priority 2000, dated 2004)
